Measured values reported in ChEMBL document CHEMBL1152559, “Antioxidant activity of 5,10-dihydroindeno[1,2-b]indoles containing substituents on dihydroindeno part” (Bioorg Med Chem, 2009).
≈ marks a conversion by molar mass, not a printed value.

Legend:
Format in all cases: functional
[1] = Antioxidant activity assessed as ABTS radical scavenging activity
[2] = tested on: Radical scavenging activity; experiment: Antioxidant activity assessed as DPPH radical scavenging activity
[3] = Antioxidant activity assessed as hydrogen peroxide radical scavenging activity
[4] = Antioxidant activity assessed as superoxide anion scavenging activity by NBT reduction assay
[5] = Antioxidant activity assessed as DMPD radical scavenging activity

SMILES	IC50 [1]	IC50 [2]	IC50 [3]	IC50 [4]	IC50 [5]
COc1cc2c(c(OC)c1)-c1[nH]c3ccccc3c1C2	23.04 µg/mL (≈ 86.8 µM)	33.31 µg/mL (≈ 126 µM)	3.35 µg/mL (≈ 12.6 µM)	20.43 µg/mL (≈ 77 µM)	60.46 µg/mL (≈ 228 µM)
Oc1ccc(O)c2c1Cc1c-2[nH]c2ccccc12	21.56 µg/mL (≈ 90.9 µM)	11.92 µg/mL (≈ 50.2 µM)	3.28 µg/mL (≈ 13.8 µM)	15.49 µg/mL (≈ 65.3 µM)	22.2 µg/mL (≈ 93.6 µM)
COc1ccc(OC)c2c1Cc1c-2[nH]c2ccccc12	32.76 µg/mL (≈ 123 µM)	51.67 µg/mL (≈ 195 µM)	3.92 µg/mL (≈ 14.8 µM)	15.75 µg/mL (≈ 59.4 µM)	24.87 µg/mL (≈ 93.7 µM)
Oc1cc(O)c2c(c1)Cc1c-2[nH]c2ccccc12	49.04 µg/mL (≈ 207 µM)	72.89 µg/mL (≈ 307 µM)	5.47 µg/mL (≈ 23.1 µM)	11.46 µg/mL (≈ 48.3 µM)	39.38 µg/mL (≈ 166 µM)
COc1ccc2c(c1OC)Cc1c-2[nH]c2ccccc12	81.39 µg/mL (≈ 307 µM)	33.16 µg/mL (≈ 125 µM)	25.43 µg/mL (≈ 95.8 µM)	12.42 µg/mL (≈ 46.8 µM)	46.44 µg/mL (≈ 175 µM)
COc1cc2c(cc1OC)-c1[nH]c3ccccc3c1C2	73.99 µg/mL (≈ 279 µM)	25.76 µg/mL (≈ 97.1 µM)	13.86 µg/mL (≈ 52.2 µM)	17.09 µg/mL (≈ 64.4 µM)	52.83 µg/mL (≈ 199 µM)
Cc1c(C)c2c(c(C)c1O)CC[C@@](C)(CCC[C@H](C)CCC[C@H](C)CCCC(C)C)O2 [ALPHA-TOCOPHEROL]	73.15 µg/mL (≈ 170 µM)	13.41 µg/mL (≈ 31.1 µM)	11.82 µg/mL (≈ 27.4 µM)	33.17 µg/mL (≈ 77 µM)	
COc1ccc(O)c(C(C)(C)C)c1.COc1ccc(O)cc1C(C)(C)C [BUTYLATED HYDROXYANISOLE]	4.65 µg/mL	16.67 µg/mL	2.65 µg/mL	68.82 µg/mL	32.92 µg/mL
Cc1cc(C(C)(C)C)c(O)c(C(C)(C)C)c1 [BUTYLATED HYDROXYTOLUENE]	52.81 µg/mL (≈ 240 µM)	42.91 µg/mL (≈ 195 µM)	5.97 µg/mL (≈ 27.1 µM)	49.48 µg/mL (≈ 225 µM)	17.45 µg/mL (≈ 79.2 µM)
Cc1c(C)c2c(c(C)c1O)CCC(C)(C(=O)O)O2 (stereo not drawn) [TROLOX]	62.32 µg/mL (≈ 249 µM)	10.03 µg/mL (≈ 40.1 µM)	8.06 µg/mL (≈ 32.2 µM)		195.11 µg/mL (≈ 780 µM)

Continued, values first:

IC50 [1]	IC50 [2]	IC50 [3]	IC50 [4]	IC50 [5]	SMILES
54.15 µg/mL (≈ 230 µM)	48.57 µg/mL (≈ 206 µM)	7.02 µg/mL (≈ 29.8 µM)	19.86 µg/mL (≈ 84.4 µM)	15.01 µg/mL (≈ 63.8 µM)	COc1ccc2c(c1)-c1[nH]c3ccccc3c1C2
63.63 µg/mL (≈ 224 µM)	64.12 µg/mL (≈ 226 µM)	8.47 µg/mL (≈ 29.8 µM)	14.39 µg/mL (≈ 50.6 µM)	15.34 µg/mL (≈ 54 µM)	Brc1ccc2c(c1)Cc1c-2[nH]c2ccccc12
39.1 µg/mL (≈ 175 µM)	49.73 µg/mL (≈ 223 µM)	4.41 µg/mL (≈ 19.8 µM)	16.49 µg/mL (≈ 73.9 µM)	31.47 µg/mL (≈ 141 µM)	Fc1ccc2c(c1)Cc1c-2[nH]c2ccccc12
39.85 µg/mL (≈ 180 µM)	11.67 µg/mL (≈ 52.7 µM)	4.47 µg/mL (≈ 20.2 µM)	26.61 µg/mL (≈ 120 µM)	130.07 µg/mL (≈ 588 µM)	Oc1ccc2c(c1)Cc1c-2[nH]c2ccccc12
45.98 µg/mL (≈ 194 µM)	29.44 µg/mL (≈ 124 µM)	5.09 µg/mL (≈ 21.5 µM)	14.1 µg/mL (≈ 59.4 µM)	76.58 µg/mL (≈ 323 µM)	Oc1cc2c(cc1O)-c1[nH]c3ccccc3c1C2
82.87 µg/mL (≈ 346 µM)	44.18 µg/mL (≈ 184 µM)	30.52 µg/mL (≈ 127 µM)	16.2 µg/mL (≈ 67.6 µM)	57.89 µg/mL (≈ 242 µM)	Clc1ccc2c(c1)Cc1c-2[nH]c2ccccc12
58.66 µg/mL (≈ 286 µM)	65.91 µg/mL (≈ 321 µM)	7.14 µg/mL (≈ 34.8 µM)	12.64 µg/mL (≈ 61.6 µM)	32.92 µg/mL (≈ 160 µM)	c1ccc2c(c1)Cc1c-2[nH]c2ccccc12
9.72 µg/mL (≈ 43.9 µM)	10.12 µg/mL (≈ 45.7 µM)	2.8 µg/mL (≈ 12.7 µM)	21.69 µg/mL (≈ 98 µM)	127.21 µg/mL (≈ 575 µM)	Oc1cccc2c1-c1[nH]c3ccccc3c1C2
79.02 µg/mL (≈ 333 µM)	9.47 µg/mL (≈ 39.9 µM)	3.16 µg/mL (≈ 13.3 µM)	31.14 µg/mL (≈ 131 µM)	34.79 µg/mL (≈ 147 µM)	Oc1ccc2c(c1O)Cc1c-2[nH]c2ccccc12
29.91 µg/mL (≈ 127 µM)	38.16 µg/mL (≈ 162 µM)	3.74 µg/mL (≈ 15.9 µM)	21.99 µg/mL (≈ 93.5 µM)	28.5 µg/mL (≈ 121 µM)	COc1cccc2c1Cc1c-2[nH]c2ccccc12
23.67 µg/mL (≈ 95 µM)	13.07 µg/mL (≈ 52.4 µM)	3.39 µg/mL (≈ 13.6 µM)	16.11 µg/mL (≈ 64.6 µM)	18.62 µg/mL (≈ 74.7 µM)	c1ccc2c3c([nH]c2c1)-c1cc2c(cc1C3)OCO2
64.69 µg/mL (≈ 292 µM)	36.27 µg/mL (≈ 164 µM)	8.82 µg/mL (≈ 39.9 µM)	18.67 µg/mL (≈ 84.4 µM)	26.75 µg/mL (≈ 121 µM)	Oc1cccc2c1Cc1c-2[nH]c2ccccc12
68.03 µg/mL (≈ 289 µM)	37.79 µg/mL (≈ 161 µM)	9.08 µg/mL (≈ 38.6 µM)	24.37 µg/mL (≈ 104 µM)	17.45 µg/mL (≈ 74.2 µM)	COc1ccc2c(c1)Cc1c-2[nH]c2ccccc12
20.71 µg/mL (≈ 93.6 µM)	27.4 µg/mL (≈ 124 µM)	3.25 µg/mL (≈ 14.7 µM)	18.55 µg/mL (≈ 83.8 µM)	14.76 µg/mL (≈ 66.7 µM)	Oc1ccc2c(c1)-c1[nH]c3ccccc3c1C2
